Where no end group is shown, it is not given here.

This is an account of results in US8546339B2, “Soothing cosmetic or pharmaceutical composition comprising a peptide which activates HMG-CoA reductase” (ISP Investments Inc., priority 2008, dated 2013).

Test [1] has as its system interleukin-1 alpha (IL-1 alpha). The test is described as follows: Ex vivo IL-1 alpha secretion by human skin biopsies (ELISA). The format is cell-based. The note with it: peptide 0.5 ppm 24 h, vs controls untreated by the peptide. Here is the method:
The goal of this study is to determine the ex vivo effect of peptide SEQ ID No. 5 on the production of the IL-1 alpha cellular inflammation mediator by biopsies of human skin cultivated under standard conditions or subjected to stress by UVB radiation or SDS.
5 mm-diameter biopsies of human skin are maintained in culture at the air-liquid interface in the presence of standard culture medium. The samples are treated with a 1% dilution of a solution at 50 ppm of peptide SEQ ID No. 5 for 24 hours, and then irradiated by UVB radiation (200 mJ/cm^2) and put back in culture for 24 hours, or subjected to contact with SDS at 2.5% for 24 hours in the presence of the same concentration of peptide SEQ ID No. 5. Controls untreated by the peptide are carried out under the same conditions. At the end of the experiment, the quantity of interleukin-1 alpha salted out in the culture medium is assayed by the ELISA technique.
For orientation: In an ELISA, binding on a coated surface is turned into a signal by an enzyme label.

The subject of the next test is HMG-CoA reductase. The test is described as follows: Expression of HMG-CoA reductase in normal human keratinocytes (immunofluorescence). The format is cell-based. The settings on record: peptide 0.5 ppm (1% of 50 ppm stock), 24 or 48 hours, anti-HMG-CoA reductase antibody, epifluorescence microscopy. The protocol:
The goal of this study is to determine the influence of peptide SEQ ID No. 5 on the expression of HMG-CoA reductase in normal human keratinocytes.
Normal human keratinocytes in culture are treated with a 1% stock solution at 50 ppm of peptide SEQ ID No. 5 for 24 or 48 hours (the medium in the presence of the active ingredient is changed every 24 hours). The cells are then washed and fixed in cold methanol for 4 minutes at 4° C. The cells are incubated in the presence of a polyclonal rabbit antibody specific for HMG-CoA reductase (Millipore, Upstate), and then a secondary antibody coupled with a fluorescent dye. The cells are then examined by epifluorescence microscope (Nikon Eclipse E600 microscope).

Turning to “Arg-Gly-Lys-Ser-NH2 (RGKS-NH2) [SEQ ID No. 5]”, the “reduction of IL-1 alpha released in culture medium after SDS stress” value in test [1] (SDS 2.5% for 24 hours with peptide) was found to be 58%. In test [1] (UVB 200 mJ/cm^2, 24 h culture), the “reduction of IL-1 alpha released in culture medium after UVB radiation” value is listed as 40%. In the test on HMG-CoA reductase, the “HMG-CoA reductase expression (cytoplasmic fluorescence)” value is “more intense cytoplasmic fluorescence”.
